Data on 12 compounds can be found in patent publication US20130143840A1, “HEPARAN SULFATE REPLACEMENT THERAPY” (priority 2010, published 2013).

“Also recorded” adds a separate entry of the source.

Data set [1] concerns islet beta cells. Description: Hydrogen peroxide (ROS)-induced beta cell death after culture, Sytox green uptake. Type of data set: cell-based, mouse. The settings on record: for ability to retain beta cell viability and induce ROS resistance (in words): summary of Table 3; for Resistance to H2O2 (ROS): then 30% H2O2 for 5 min.
For data set [2], the target named is T1, heparanase (Homo sapiens, UniProt Q9Y251).
T1 sequence (Q9Y251 158-543 limits assumed): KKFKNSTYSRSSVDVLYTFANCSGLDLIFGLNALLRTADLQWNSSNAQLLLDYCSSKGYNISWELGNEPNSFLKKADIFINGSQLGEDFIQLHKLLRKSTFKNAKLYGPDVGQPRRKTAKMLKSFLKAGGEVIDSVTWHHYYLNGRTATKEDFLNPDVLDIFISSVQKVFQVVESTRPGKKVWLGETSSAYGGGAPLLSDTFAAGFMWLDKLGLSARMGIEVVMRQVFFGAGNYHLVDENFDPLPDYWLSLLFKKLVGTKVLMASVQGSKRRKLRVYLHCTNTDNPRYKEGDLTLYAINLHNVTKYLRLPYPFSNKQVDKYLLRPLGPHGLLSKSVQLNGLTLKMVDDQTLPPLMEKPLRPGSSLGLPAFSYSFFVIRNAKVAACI
T1 sequence (Q9Y251 36-109 limits assumed): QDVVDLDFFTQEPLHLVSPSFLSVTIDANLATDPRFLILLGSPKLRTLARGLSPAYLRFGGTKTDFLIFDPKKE
Description: Heparanase inhibitory activity (Freeman and Parish 1997 assay). Format: biochemical.

The subject of data set [3] is isolated BALB/c islet beta cells. Description: Culture-induced death of isolated islet beta cells, Sytox green uptake by flow cytometry. Format: cell-based, mouse. The settings on record: for Viability (%): untreated control 25-30% viability. The source says: (§1) Pancreatic islets were isolated from non-diabetic BALB/c mice and dissociated into a single cell suspension (>90% beta cells) by Dispase digestion. Following 2 days culture in standard tissue culture medium 62% of the beta cells were dead, based on uptake of the fluorescent DNA binding dye, Sytox green (FIG. 4, upper panels). […] In the presence of heparin the highly viable Calcein^+, PI^−population of beta cells was increased from 25% to 86%, the dead population. (Calcein^−, PI^+) reduced from 18% to 1% and the apoptotic population (Calcein^+, PI^+) improved from 52% to 6%. […] Table 1 provides a statistical analysis of the data showing that heparin, highly sulfated heparan sulfate (HS^hi) and PI-88 can protect mouse beta cells from culture-induced cell death.
(§2) The impact of heparin treatment on beta cell viability was also independent of the source of heparin (FIG. 8a) and, based on viable cell numbers, was not observed after 1 h but did occur after continuous culture with heparin for 1-2 days (FIG. 8b).
(In general: Flow cytometry measures light scatter and fluorescence of single cells or particles in a stream.)

For data set [4], the system named is islet beta cells. The data set is described as follows: Insulin content of beta cells from islets isolated in the presence of heparin, flow cytometry. Format: cell-based, mouse. The settings on record: heparin 50 μg/ml in the islet isolation medium. The method, then: This deficiency in intra-islet heparan sulfate persisted for at least 3 days after transplantation of the islets into histocompatible recipients, normal heparan sulfate levels only being regained 7 days post-transplantation (FIG. 13). Inclusion of heparin (50 μg/ml) in the islet isolation medium improved the insulin content of the islet beta cells 2-fold (FIG. 14).

The test system of data set [5] is islet beta cells. Description: Intracellular insulin content of cultured beta cells. As to conditions: 50 μg/ml, 2 days culture. Format: cell-based, mouse. How it is done: Comparison of the ability of HS^hi (50 μg/ml) and undersulfated HS(HS^lo, 50 μg/ml) to protect beta cells from 2 day culture-induced cell death, as shown by Sytox green uptake (upper panels). Lower panels depict the intracellular insulin content (green histograms) of the different preparations of cultured islet cells. Serum control (red histograms) and islet cell autofluorescence (black histograms) are also shown. 85-88% of the cultured islet cells were insulin^+ beta cells.
as §2

For data set [6], the system named is isolated BALB/c islet beta cells. Description: Beta cell viability by Calcein-AM / propidium iodide staining, flow cytometry. Format: cell-based, mouse. As to conditions: 50 μg/ml, 2 days culture.
Description: as §1

For data set [7], the system named is isolated islets. The data set is described as follows: Heparan sulfate of islets isolated with free radical scavengers, Alcian blue staining. The settings on record: combined: donors pretreated with BHA 120 mg/kg i.p. and islets isolated in presence of DMTU 50 mM. Details: species or system mouse. The source says: Transplantation of pancreatic islets is a well established therapeutic approach for treating Type I diabetes in animals and patients. However, recovery of fully functional islets is crucial if successful transplantation is to occur, irrespective of the problems associated with the recipient's immune response against the allograft. Based on the data described herein, preservation of intra-islet heparan sulfate during islet isolation is an important factor in ensuring that normal islet function is retained. […] In fact, following isotransplantation intra-islet heparan sulfate was still depleted 3 days after transplantation but returned to normal levels 7 days post-transplant (FIG. 13). […] These observations indicate that a combination of heparan sulfate and free radical scavengers could be used to preserve beta cell heparan sulfate during islet isolation.

Where [8] appears, read: 50 μg/ml, 2 days culture, Sytox green.

As for Dextran sulfate, in data set [1] (50 μg/ml, 2 days culture), the “ability to retain beta cell viability and induce ROS resistance (in words)” value (“ability … (in words)” for short) was “induced high beta cell viability and ROS resistance”; the “Resistance to H2O2 (ROS)” value is on record as “++++”. Also, the Hpse inhibition result in data set [2] was “++”.
Regarding Chondroitin sulfate B, the “Resistance to H2O2 (ROS)” value in data set [1] (50 μg/ml, 2 days culture) is on record as “−”. For the same compound, in data set [3] (setting [8]), the “Viability (%)” value was found to be 46%. For the same compound, the Hpse inhibition result in data set [2] is recorded as “−”.
Consider Chondroitin sulfate A, for which the “Resistance to H2O2 (ROS)” value in data set [1] (50 μg/ml, 2 days culture) is given as “−”. Moreover, in data set [3] (setting [8]), the “Viability (%)” value is 50%. The Hpse inhibition result in data set [2] was “±”.
For Chondroitin sulfate C the same measures were “−”, 32% and “−”.
Regarding Heparin, the “% viable after hydrogen peroxide treatment” value in data set [1] (2 days culture with 50 μg/ml) is listed as 95%. Further, the “% cell death following hydrogen peroxide treatment” value in data set [1] (heparin 50 μg/ml co-culture, freshly isolated cells 96.1% cell death) worked out at 5.0%. Also, the “insulin content of islet beta cells, increase over control” value in data set [4] is 2 fold. For the same compound, the “change in the insulin content of cultured beta cells (in words)” value in data set [5] is on record as “little or no change”. Moreover, the “beta cell survival at 5 μg/ml (in words)” value in data set [3] (5 μg/ml, 2 days culture) is listed as “equally active; also recorded: preserved beta cell survival”. Also, the “protection from culture-induced cell death / beta cell survival (in words)” value in data set [3] (setting [8]) is reported as “dramatically enhanced”. In data set [3] (heparin 50 μg/ml co-culture, controls 72.5% dead), the “% dead beta cells in culture (Sytox green)” value worked out at 5.3%. Moreover, in data set [6] (control 18%), the “dead population (Calcein−, PI+)” value was 1%. Moreover, the “Calcein+, PI− population of beta cells (highly viable)” value in data set [6] (control 25%) is given as 86%. Further, the “apoptotic population (Calcein+, PI+)” value in data set [6] (control 52%) is on record as 6%. Besides, the “% beta cells Calceln − PI− (cell debris)” value in data set [6] (n = 3-5/group) is reported as 9.75 ± 1.9%.
For “O-α-D-Glucopyranosyl-{(1→4)—O-α-D-glucopyranosyl}4-(1→4)-D-glucopyranose sulfate [Maltohexaose sulfate]”, in data set [1] (50 μg/ml, 2 days culture), the “ability … (in words)” value is “induced high beta cell viability and ROS resistance”; the “Resistance to H2O2 (ROS)” value was “++++”. Further, the Hpse inhibition result in data set [2] is “+++”.
In the case of `CNC(=S)NC` [DMTU, dimethylthiourea], in data set [7], the “Alcian blue staining for heparan sulfate of isolated islets (in words)” value is “increased”.
For the compound Chondroitin sulfate D, in data set [1] (50 μg/ml, 2 days culture), the “Resistance to H2O2 (ROS)” value was “−”. For the same compound, the “Viability (%)” value in data set [3] (setting [8]) was 32%. The Hpse inhibition entry in data set [2] is listed as “±”.
With `COc1ccc(O)c(C(C)(C)C)c1` [BHA, butylated hydroxyanisole], the “Alcian blue staining for heparan sulfate of isolated islets (in words)” value in data set [7] was “increased”.
Turning to Chitosan, the “Resistance to H2O2 (ROS)” value in data set [1] (50 μg/ml, 2 days culture) is given as “−”. Further, in data set [3] (setting [8]), the “Viability (%)” value was 30%. Besides, in data set [2], the Hpse inhibition entry was “−”.
Turning to Bis-lactobionic acid amide (C12 link), in data set [1] (50 μg/ml, 2 days culture), the “protection from peroxide (ROS)-induced cell death / induction of ROS resistance (in words)” value is “essentially unable to induce islet beta cells to become ROS resistance” and the “Resistance to H2O2 (ROS)” value is on record as “−”. In addition, the “heparanase inhibition (in words)” value in data set [2] is given as “strong to very strong heparanase inhibitors”.
Take Maltopentaose sulfate: in data set [1] (50 μg/ml, 2 days culture), the “ability … (in words)” value is “induced high beta cell viability and ROS resistance”; the “Resistance to H2O2 (ROS)” value was “++++”. For the same compound, in data set [2], the Hpse inhibition entry is “+++”.
